Measurements taken from patent EP3827825A1, “USE OF 3, 4-DIARYLPYRAZOLES AS ANTIBACTERIAL AGENTS” (Wageningen Universiteit, priority 2019, dated 2021).
Converted amounts (≈) assume the structure as drawn. Like-named read-outs stand apart in the source and are kept apart here.

Legend:
M. marinum = experiment: Minimal inhibitory concentration (MIC), Middlebrook 7H9 broth, 3 days at 30 °C; type: cell-based, Mycobacterium marinum; settings: unit assumed
In short: (§1)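 Broth double-dilution, top conc. 50 µg/mL, 2-fold steps; overnight culture diluted 100x as inoculum; 24 h incubation; OD600 read; MIC = lowest conc., no growth. M. marinum: Middlebrook 7H9, 3 days, 30 °C.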

E. faecium Van A = experiment: Minimal inhibitory concentration (MIC), double-dilution in broth, OD600; type: cell-based, Enterococcus faecium; settings: unit assumed
In short: as §1

E. coli JW5503 = type: cell-based, Escherichia coli; settings: unit assumed
In short: as §1

S. aureus Newman = experiment: Minimal inhibitory concentration (MIC), double-dilution in broth, OD600; type: cell-based, Staphylococcus aureus Newman; settings: unit assumed
In short: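 Twofold broth dilution series of compound from a DMSO stock, against S. aureus Newman from a 1:100-diluted overnight culture. Plates were incubated for 24 hours, then read at OD600. The MIC is the lowest concentration showing no growth.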

S. suis = experiment: as above; type: cell-based, Streptococcus suis; settings: unit assumed
In short: as §1

P. multocida = experiment: as above; type: cell-based, Pasteurella multocida; settings: unit assumed
In short: as §1

NRK-52E = experiment: Cell toxicity, Alamar blue assay, 24 hours exposure; type: cell-based; settings: for IC50: Rattus norvegicus, read-out: IC50 NRK-52E (50 mg/mL stock)
In short: (§2)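 Alamar blue (resazurin→resorufin) viability in NRK-52E and HEK293 cells after 24 h exposure to HKI compounds at 0.39–500 µg/mL in serum-free medium. Compounds were removed, dye added for 45 min, fluorescence read. Mostly single measurements.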

HEK293 = experiment: as above; type: cell-based; settings: for IC50: Homo sapiens
In short: as §2

[1] = HEK293, read-out: IC50 HEK293 (5 mg/mL stock)
[2] = HEK293, read-out: IC50 HEK293 (50 mg/mL stock)

SMILES	MIC M. marinum (M. marinum) [µg/mL]	MIC E. faecium Van A (E. faecium Van A) [µg/mL]	MIC E. coli JW5503 (E. coli JW5503) [µg/mL]	MIC S. aureus Newman (S. aureus Newman) [µg/mL]	MIC S. suis (S. suis) [µg/mL]	MIC P. multocida (P. multocida) [µg/mL]	IC50 (NRK-52E) [µg/mL]	IC50 (HEK293; [1]) [µg/mL]	IC50 NRK-52E (50 mg/mL stock) (NRK-52E)	IC50 HEK293 (50 mg/mL stock) (HEK293; HEK293, 50 mg/mL stock)	IC50 (HEK293; [2]) [µg/mL]	IC50 HEK293 (5 mg/mL stock) (HEK293; HEK293, 5 mg/mL stock)
COc1ccc(-c2c(-c3ccc(OCC(=O)NN)cc3O)n[nH]c2C(F)(F)F)cc1 [May-17, 2-[3-hydroxy-4-[4-(4-methoxyphenyl)-5-(trifluoromethyl)-1∼{H}-pyrazol-3-yl]phenoxy]acetohy drazide]	> 50	25 (≈ 59.2 µM)	6.25 (≈ 14.8 µM)	25 (≈ 59.2 µM)	25 (≈ 59.2 µM)	> 50	22 (≈ 52.2 µM)	15 (≈ 35.5 µM)				
Oc1cc(OCc2ccc(Br)cc2)ccc1-c1n[nH]c(C(F)(F)F)c1-c1ccc(Cl)cc1 [May-18, 5-(4-bromobenzyl)oxy-2-[4-(4-chlorophenyl)-5-(trifluoromethyl)-1∼{H}-pyrazol-3-yl]phenol]	6.25 (≈ 11.9 µM)	3.13 (≈ 5.98 µM)	> 50	0.78 (≈ 1.49 µM)	3.13 (≈ 5.98 µM)	> 50			4.568	4.7		
CCOc1ccc(-c2n[nH]c(C(F)(F)F)c2-c2ccccc2OC)c(O)c1 [May-20, 5-ethoxy-2-[4-(2-methoxyphenyl)-5-(trifluoromethyl)-1∼{H}-pyrazol-3-yl]phenol]	25 (≈ 66.1 µM)	12.5 (≈ 33 µM)	3.13 (≈ 8.27 µM)	6.25 (≈ 16.5 µM)	6.25 (≈ 16.5 µM)	50 (≈ 132 µM)	~17.6 (≈ 46.5 µM)	2.1 (≈ 5.55 µM)				
COc1ccc(-c2[nH]nc(C(F)(F)F)c2-c2ccc(Br)cc2)c(O)c1 [May-23, 2-[4-(4-bromophenyl)-5-(trifluoromethyl)-1∼{H}-pyrazol-3-yl]-5-methoxy-phenol]	> 50	3.13 (≈ 7.58 µM)	3.13 (≈ 7.58 µM)	3.13 (≈ 7.58 µM)	6.25 (≈ 15.1 µM)	50 (≈ 121 µM)	~2.81 (≈ 6.81 µM)	8.38 (≈ 20.3 µM)			9 (≈ 21.8 µM)	
Oc1cc(OCc2ccccc2)ccc1-c1[nH]nc(C(F)(F)F)c1-c1ccccc1 [May-24, 5-benzoxy-2-[4-phenyl-5-(trifluoromethyl)-1∼{H}-pyrazol-3-yl]phenol]	25 (≈ 60.9 µM)	1.56 (≈ 3.8 µM)	25 (≈ 60.9 µM)	1.56 (≈ 3.8 µM)	3.13 (≈ 7.63 µM)	> 50	~3.86 (≈ 9.41 µM)				4.8 (≈ 11.7 µM)	
CCOc1ccc(-c2[nH]nc(C(F)(F)F)c2-c2ccc(Cl)cc2)c(O)c1 [May-27, 2-[4-(4-chlorophenyl)-5-(trifluoromethyl)-1∼{H}-pyrazol-3-yl]-5-ethoxy-phenol]	50 (≈ 131 µM)	3.13 (≈ 8.18 µM)	3.13 (≈ 8.18 µM)	3.13 (≈ 8.18 µM)	3.13 (≈ 8.18 µM)	25 (≈ 65.3 µM)	181 (≈ 472 µM)	10.8 (≈ 28.3 µM)			118 (≈ 309 µM)	
CCOc1cc(O)c(-c2n[nH]c(C(F)(F)F)c2-c2ccccc2)cc1CC [Sep-2, 5-ethoxy-4-ethyl-2-[4-phenyl-5-(trifluoromethyl)-1∼{H}-pyrazol-3-yl]phenol]	> 50	25 (≈ 66.4 µM)	25 (≈ 66.4 µM)	6.25 (≈ 16.6 µM)	25 (≈ 66.4 µM)	> 50	~17.4 (≈ 46.2 µM)	3.97 (≈ 10.5 µM)				
C=C(C)COc1ccc(-c2[nH]nc(C(F)(F)F)c2-c2ccccc2)c(O)c1 [Sep-9, 5-(2-methylallyloxy)-2-[4-phenyl-5-(trifluoromethyl)-1∼{H}-pyrazol-3-yl]phenol]	> 50	0.78 (≈ 2.08 µM)	6.25 (≈ 16.7 µM)	6.25 (≈ 16.7 µM)	25 (≈ 66.8 µM)	50 (≈ 134 µM)	~10.9 (≈ 29 µM)	16.1 (≈ 43.1 µM)				
Oc1cc(OCc2ccc(Br)cc2)ccc1-c1n[nH]c(C(F)(F)F)c1-c1ccc(Cl)cc1 [Sep-13, 5-(4-bromobenzyl)oxy-2-[4-(4-chlorophenyl)-5-(trifluoromethyl)-1∼{H}-pyrazol-3-yl]phenol]	25 (≈ 47.7 µM)	12.5 (≈ 23.9 µM)	> 50	1.56 (≈ 2.98 µM)	6.25 (≈ 11.9 µM)	> 50			10.89			16.51
Oc1cc(OCc2ccccc2Cl)ccc1-c1n[nH]c(C(F)(F)F)c1-c1ccc(Cl)cc1 [Sep-25, 5-(2-chlorobenzyl)oxy-2-[4-(4-chlorophenyl)-5-(trifluoromethyl)-1∼{H}-pyrazol-3-yl]pheno]	50 (≈ 104 µM)	12.5 (≈ 26.1 µM)	> 50	3.13 (≈ 6.53 µM)	12.5 (≈ 26.1 µM)	> 50	17.3 (≈ 36 µM)	19.3 (≈ 40.2 µM)			18.1 (≈ 37.7 µM)	
C=C(C)COc1ccc(-c2[nH]nc(C(F)(F)F)c2-c2ccc(Cl)cc2)c(O)c1 [Sep-29, 2-[4-(4-chlorophenyl)-5-(trifluoromethyl)-1∼{H}-pyrazol-3-yl]-5-(2-methylallyloxy)phenol]	> 50	6.25 (≈ 15.3 µM)	12.5 (≈ 30.6 µM)	3.13 (≈ 7.66 µM)	12.5 (≈ 30.6 µM)	> 50	19.9 (≈ 48.7 µM)	16.4 (≈ 40.1 µM)				
